These results are taken from US8609715B2, “Heteroarylcarboxylic acid ester derivative” (Ajinomoto Co., Inc., priority 2009, dated 2013).

Where a name gives a salt, the structure may show the parent alone.

Chain of recombinant human enteropeptidase (P98073 whole entry): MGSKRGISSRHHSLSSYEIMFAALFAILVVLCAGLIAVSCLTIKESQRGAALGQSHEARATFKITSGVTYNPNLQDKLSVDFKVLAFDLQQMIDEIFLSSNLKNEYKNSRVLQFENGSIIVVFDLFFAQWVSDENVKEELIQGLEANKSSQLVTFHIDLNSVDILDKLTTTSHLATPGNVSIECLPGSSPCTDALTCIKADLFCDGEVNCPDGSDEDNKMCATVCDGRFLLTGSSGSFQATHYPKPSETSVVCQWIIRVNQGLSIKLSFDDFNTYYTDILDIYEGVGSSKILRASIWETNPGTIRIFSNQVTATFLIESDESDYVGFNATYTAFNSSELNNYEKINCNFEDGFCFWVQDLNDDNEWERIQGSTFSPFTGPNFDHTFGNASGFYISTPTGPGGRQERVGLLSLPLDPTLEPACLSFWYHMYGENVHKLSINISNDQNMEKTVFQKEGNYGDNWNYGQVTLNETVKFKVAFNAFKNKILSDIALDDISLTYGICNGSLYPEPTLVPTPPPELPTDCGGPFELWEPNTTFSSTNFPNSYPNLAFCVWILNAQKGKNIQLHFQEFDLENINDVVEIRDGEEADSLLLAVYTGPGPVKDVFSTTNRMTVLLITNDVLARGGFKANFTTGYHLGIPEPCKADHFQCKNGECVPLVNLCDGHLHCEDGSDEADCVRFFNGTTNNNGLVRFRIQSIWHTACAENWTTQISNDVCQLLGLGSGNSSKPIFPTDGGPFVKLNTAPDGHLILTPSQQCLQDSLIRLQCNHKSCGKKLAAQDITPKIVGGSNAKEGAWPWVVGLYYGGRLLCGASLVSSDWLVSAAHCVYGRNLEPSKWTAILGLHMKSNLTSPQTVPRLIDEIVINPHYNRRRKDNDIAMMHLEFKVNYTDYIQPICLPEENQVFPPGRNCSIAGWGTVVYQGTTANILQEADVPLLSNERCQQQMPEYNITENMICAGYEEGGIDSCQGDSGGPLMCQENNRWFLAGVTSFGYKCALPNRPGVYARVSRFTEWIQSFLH

The test deals with recombinant human enteropeptidase (Homo sapiens (Human), UniProt P98073). The test can be described thus: Measurement of enteropeptidase inhibitory activity. The format is biochemical. The note with it: Dixon plot. Here is the method:
Measurement of Enteropeptidase Inhibitory Activity
Using a 96 well plate (#3915, Costar), a test compound (25 μL), 400 mM Tris-HCl buffer (pH 8.0, 25 μL) and 0.5 mg/mL fluorescence enzyme substrate (Gly-Asp-Asp-Asp-Asp-Lys-β-Naphtylamide, 25 μL) were mixed, and recombinant human enteropeptidase (R&D Systems, Inc., 25 μL) was added. Using a fluorescence plate reader fmax (Molecular Devices, Inc.), the reaction rate was measured from the time-course changes at excitation wavelength 320 nm and fluorescence wavelength 405 nm. The Ki value was calculated from the concentration of the test compound, reciprocal of reaction rate, and Km value of the enzyme substrate, and by using Dixon plot.
A word on the Ki: it is the dissociation constant of the complex between target and ligand, obtained from inhibition or displacement. With `CC(Cc1ccc(C(=O)Oc2ccc(C(=N)N)cc2)o1)C(=O)O` (stereo in doubt) [Compound A-42, 3-[5-(4-amidinophenoxycarbonyl)furan-2-yl]-2R-methylpropionic acid trifluoroacetic acid salt], the inhibition constant (Ki) worked out at 0.71 nM. Under `C/C(=C\c1ccc(C(=O)Oc2ccc(C(=N)N)cc2)o1)C(=O)N[C@@H](CO)C(=O)O` [Compound A-1] stands 2.27 nM. Under `C/C(=C\c1ccc(C(=O)Oc2ccc(C(=N)N)cc2)o1)C(=O)NCC(=O)O` [Compound A-2] stands 1.97 nM; under `C/C(=C\c1ccc(C(=O)Oc2ccc(C(=N)N)cc2)o1)C(=O)O` [Compound A-3, (2E)-3-[5-(4-amidinophenoxycarbonyl)-furan-2-yl]-2-methylpropenoic acid trifluoroacetic acid salt], 1.15 nM. On to `CC(Cc1ccc(C(=O)Oc2ccc(C(=N)N)cc2)o1)C(=O)NCC(=O)O` (centres unmarked) [Compound A-4], for which the inhibition constant (Ki) stood at 2.68 nM. For `CC(Cc1ccc(C(=O)Oc2ccc(C(=N)N)cc2)o1)C(=O)N[C@@H](CO)C(=O)O` (some centres unmarked) [Compound A-5], the Ki was found to be 1.37 nM. `CC(Cc1ccc(C(=O)Oc2ccc(C(=N)N)cc2)o1)C(=O)O` (centres unmarked) [Compound A-6, 3-[5-(4-amidinophenoxycarbonyl)furan-2-yl]-2-methylpropionic acid trifluoroacetic acid salt]: the inhibition constant Ki is 0.62 nM. Under `C/C(=C\c1ccc(C(=O)Oc2ccc(C(=N)N)cc2)o1)C(=O)N(CCCO)CC(=O)O` [Compound A-7] stands 1.49 nM. Under `CC(Cc1ccc(C(=O)Oc2ccc(C(=N)N)cc2)o1)C(=O)N(CCCO)CC(=O)O` (centres unmarked) [Compound A-9] stands 3.17 nM; under `C/C(=C\c1ccc(C(=O)Oc2ccc(C(=N)N)cc2)o1)C(=O)N(CCO)Cc1ccccc1` [Compound A-10], 6.73 nM. Under `C/C(=C\c1ccc(C(=O)Oc2ccc(C(=N)N)cc2)o1)C(=O)N(CCCO)CCC(=O)O` [Compound A-12, N-{(2E)-3-[5-(4-amidino-2-phenoxycarbonyl)furan-2-yl]-2-methylpropenoyl}-N-(3-hydroxypropyl)-β-alanine trifluoroacetic acid salt] stands 3.31 nM; under `C/C(=C\c1ccc(C(=O)Oc2ccc(C(=N)N)cc2)o1)C(=O)N[C@H](C(=O)O)C(C)O` (some centres unmarked) [Compound A-14], 3.52 nM; under `CC(Cc1ccc(C(=O)Oc2ccc(C(=N)N)cc2)o1)C(=O)N[C@@H](CCC(=O)O)C(=O)O` (some centres unmarked) [Compound A-15], 1.63 nM. In the case of `CC(Cc1ccc(C(=O)Oc2ccc(C(=N)N)cc2)o1)C(=O)N[C@H](C(=O)O)C(C)O` (some centres unmarked) [Compound A-16], the Ki was found to be 1.88 nM. Regarding `CC(Cc1ccc(C(=O)Oc2ccc(C(=N)N)cc2)o1)C(=O)N[C@@H](CC(=O)O)C(=O)O` (some centres unmarked) [Compound A-18], the inhibition constant Ki was 0.61 nM. For the compound `CC(Cc1ccc(C(=O)Oc2ccc(C(=N)N)cc2)o1)C(=O)N1CCC[C@@H]1C(=O)O` (some centres unmarked) [Compound A-19], the Ki turned out to be 1.91 nM. For the compound `CC(Cc1ccc(C(=O)Oc2ccc(C(=N)N)cc2)o1)C(=O)N1C[C@H](O)C[C@@H]1C(=O)O` (some centres unmarked) [Compound A-20], the inhibitory constant (Ki) was found to be 2.54 nM. As to `CC(Cc1ccc(C(=O)Oc2ccc(C(=N)N)cc2)o1)C(=O)N1C[C@@H](O)C[C@H]1C(=O)O` (some centres unmarked) [Compound A-21], the Ki came out at 4.81 nM. Consider `C[C@H](Cc1ccc(C(=O)Oc2ccc(C(=N)N)cc2)o1)C(=O)N[C@@H](CC(N)=O)C(=O)O` [Compound A-22], for which the Ki is 0.95 nM. As to `C[C@@H](Cc1ccc(C(=O)Oc2ccc(C(=N)N)cc2)o1)C(=O)N[C@@H](CC(N)=O)C(=O)O` [Compound A-23], the Ki is 2 nM. For the compound `CC(Cc1ccc(C(=O)Oc2ccc(C(=N)N)cc2)o1)C(=O)N(CC(=O)O)CC(=O)O` (centres unmarked) [Compound A-26], the Ki amounted to 0.68 nM. As for `CC(Cc1ccc(C(=O)Oc2ccc(C(=N)N)cc2)o1)C(=O)N[C@H](CCC(=O)O)C(=O)O` (some centres unmarked) [Compound A-27], the Ki amounted to 0.57 nM.

For `CC(Cc1ccc(C(=O)Oc2ccc(C(=N)N)cc2)o1)C(=O)N[C@H](CC(=O)O)C(=O)O` (some centres unmarked) [Compound A-28], the Ki was 0.42 nM.
